# Assay results as given in patent US20240025913A1, “TERTIARY CARBOXAMIDE COMPOUNDS” (Vivace Therapeutics, Inc., priority 2020, published 2024).
# Tested on: 8×TBD luciferase reporter in HEK293T cells
# Experiment: YAP Reporter Assay (firefly luciferase)
# Assay type: cell-based
# Details: Homo sapiens, HEK-293T; HEK293T cells stably transfected with 8×TBD luciferase reporter and pRLTK; 24-hr incubation; starting from 3 μM, 1:3 dilution, 10 points
# Method: HEK293T cells stably transfected with 8×TBD luciferase reporter and pRLTK in 384-well plates were treated with the test compounds, starting from 3 μM (final concentration in assay plate), 1:3 dilution, and 10 points in quadruplicates. Post 24-hr incubation with compounds at 37° C. and 5% CO2, cells were lysed and 8×TBD-driven firefly luciferase and control TK-driven renilla luciferase activities were measured using Promega Dual-Luciferase Reporter Assay System.
# Reagents: The reagents used for this study are: DMEM: Invitrogen #11960077, Dual-Glo Luciferase Assay System: Promega-E2980, Puromycin Dihydrochloride: Invitrogen-A1113803, 384-well plate: PerkinElmer-6007480, L-GLUTAMINE: Invitrogen-25030164, Hygromycin B: Invitrogen-10687010, and Penicillin-Streptomycin: Merk-TMS-AB2-C
# Media: The media used for this assay were: Culture Medium: DMEM+1 ug/mL puromycin+200 ug/mL hygromycin (with 10% FBS+1 mM L-glutamine); and Assay Medium: DMEM (with 10% FBS+1 mM L-glutamine+1×P/S).
# Cell Plating: The appropriate media was warmed at 37° C. by water bath: Culture Medium, Assay Medium, 1*D-PBS, 0.05% trypsin-EDTA. The cells were trypsinized after removing all media, then washed with 1*sterile D-PBS and then with 2 ml 0.05% trypsin-EDTA. The cells were then incubated at RT for one minute. Then 10 ml/75 cm2 flask Assay Medium was added to each flask. Using a 10 ml pipette, the cells were then gently resuspended in the media, until the clumps completely disappeared. The cells were then transferred into 50 ml centrifuge tubes and were centrifuged at 800 rpm for 5 mins. The medium was removed and the cells were resuspended with Assay Medium. An aliquot of cells was used to count the cell density (cells/ml). The cell suspension was then diluted with Assay Medium to a concentration of 6×10^4 cells/ml. 50 ul cells suspension was then plated to 384-well plate (PerkinElmer-6007480), 3×10^3 cells/well and the cells were incubated in an incubator at 37° C., 5% CO2.
# Compound Treatment: In the afternoon (incubation of the plate with 3-4 hrs), the test compounds were added by Echo, starting from 3 uM (final concentration in the assay plate), 1:3 dilution, 10 points, quadruplicates. The plate was placed at 37° C., 5% CO2 incubator for 24 hrs.
# Detection: The Dual-Glo Luciferase Reagent was prepared by transferring the contents of one bottle of Dual-Glo Luciferase Buffer to one bottle of Dual-Glo Luciferase Substrate to create the Dual-G Luciferase Reagent. Mixing was performed by inversion until the substrate was thoroughly dissolved. After mixing, the reagent was aliquoted into 15 ml tubes. In the afternoon (24 hrs post compound treatment), the DMEM+ medium in the 384 well plates were aspirated by Microplate Washer.
# Measuring firefly luciferase activity: 20 ul Dual-Glo Luciferase Reagent was added to the 384-well plates. The plates were protected from light to prevent interference with the assay. The plates were shaken for […] followed centrifuging plates at 1000 rpm for 30 seconds. After waiting at least 10 minutes, the firefly luminescence was measured by Envision.
# Measuring renilla luciferase activity: 20 ul Stop-Glo Reagent was added to the 384-well plates. The plates were shaken for […] and then centrifuged at 1000 rpm for 30 seconds. After waiting at least 10 minutes, the renilla luminescence was measured by Envision.
# Compound IC50 and maximum inhibition on the firefly luciferase and renilla luciferase activities were reported separately.
row,Compound,IC50
1,"COCCNC1CN(C(=O)c2ccc3c(Oc4ccc(C(F)(F)F)cc4)cccc3c2)C1 [Compound 29, (3-((2-Methoxyethyl)amino)azetidin-1-yl)(5-(4-(trifluoromethyl)phenoxy)naphthalen-2-yl)methanone]",100 to 1000 nM
2,"NC1CCN(C(=O)c2ccc3c(Oc4ccc(C(F)(F)F)cc4)cccc3c2)C1 (stereo not drawn) [Compound 3, (3-Aminopyrrolidin-1-yl)(5-(4-(trifluoromethyl)phenoxy)naphthalen-2-yl)methanone]",100 to 1000 nM
3,"O=C(c1ccc2c(Oc3ccc(C(F)(F)F)cc3)cccc2c1)N1CC(CNCC(F)F)C1 [Compound 38, (3-(((2,2-Fifluoroethyl)amino)methyl)azetidin-1-yl)(5-(4-(trifluoromethyl)phenoxy)naphthalen-2-yl)methanone]",≤ 100 nM
4,"O=C(c1ccc2c(Oc3ccc(C(F)(F)F)cc3)cccc2c1)N1CC(NCC(F)F)C1 [Compound 32, (3-((2,2-Difluoroethyl)amino)azetidin-1-yl)(5-(4-(trifluoromethyl)phenoxy)naphthalen-2-yl)methanone]",100 to 1000 nM
5,"O=C(c1ccc2c(Oc3ccc(C(F)(F)F)cc3)cccc2c1)N1CC(NCCO)C1 [Compound 30, (3-((2-Hydroxyethyl)amino)azetidin-1-yl)(5-(4-(trifluoromethyl)phenoxy)naphthalen-2-yl)methanone]",≤ 100 nM
6,"NCC1CCCN(C(=O)c2ccc3c(Oc4ccc(C(F)(F)F)cc4)cccc3c2)C1 (stereo not drawn) [Compound 9, (3-(Aminomethyl)piperidin-1-yl)(5-(4-(trifluoromethyl)phenoxy)naphthalen-2-yl)methanone]",100 to 1000 nM
7,"NC1CN(C(=O)c2ccc3c(Oc4ccc(C(F)(F)F)cc4)cccc3c2)C1 [Compound 1A, (3-aminoazetidin-1-yl)(5-(4-(trifluoromethyl)phenoxy)naphthalen-2-yl)methanone]",≤ 100 nM
8,"CC(C)NCC1CN(C(=O)c2ccc3c(Oc4ccc(C(F)(F)F)cc4)cccc3c2)C1 [Compound 34, (3-((Isopropylamino)methyl)azetidin-1-yl)(5-(4-(trifluoromethyl)phenoxy)naphthalen-2-yl)methanone]",100 to 1000 nM
9,"O=C(c1ccc2c(Oc3ccc(C(F)(F)F)cc3)cccc2c1)N1CC2(C1)CN(c1ccccn1)C2 [Compound 41, (6-(Pyridin-2-yl)-2,6-diazaspiro[3.3]heptan-2-yl)(5-(4-(trifluoromethyl)phenoxy)naphthalen-2-yl)methanone]",1000 to 3000 nM
10,"CS(=O)(=O)NCC1CN(C(=O)c2ccc3c(Oc4ccc(C(F)(F)F)cc4)cccc3c2)C1 [Compound 17, N-((1-(5-(4-(trifluoromethyl)phenoxy)-2-naphthoyl)azetidin-3-yl)methyl)methanesulfonamide]",≤ 100 nM
11,"O=C(c1ccc2c(Oc3ccc(C(F)(F)F)cc3)cccc2c1)N1CC(CO)C1 [Compound 13, (3-(Hydroxymethyl)azetidin-1-yl)(5-(4-(trifluoromethyl)phenoxy)naphthalen-2-yl)methanone]",≤ 100 nM
12,"CNC1CN(C(=O)c2ccc3c(Oc4ccc(C(F)(F)F)cc4)cccc3c2)C1 [Compound 26, (3-(Methylamino)azetidin-1-yl)(5-(4-(trifluoromethyl)phenoxy)naphthalen-2-yl)methanone]",100 to 1000 nM
